Measurements reported in ChEMBL document CHEMBL1126547, “Cardioselective anti-ischemic ATP-sensitive potassium channel openers” (J Med Chem, 1993).
Activity calls are given as the source filed them. No cut-off for these calls is given here.

How the values were obtained:
Rattus norvegicus [1] = species: Rattus norvegicus; test: Anti-ischemic potency determined as concentration required for increase in time to contracture in globally ischemic rat hearts; type: functional
Rattus norvegicus [2] = species: Rattus norvegicus; test: Vasorelaxant potency determined by inhibition of methoxamine-contracted rat aorta; type: functional
[3] = Ratio between EC25 and IC50 values was determined
Rattus norvegicus [4] = species: Rattus norvegicus; test: Anti-ischemic potency determined as concentration required for increase in time to contracture in globally ischemic rat hearts 10 uM; No significant activity; type: functional
[5] = Oral bioavailability in rat; type: ADME, organism-based; conditions: in vivo
[6] = Plasma half-life was determined in rats; type: ADME, organism-based; conditions: rat, read-out: Elimination half-life (converted)

IC50 (Rattus norvegicus [2]; Rattus norvegicus, Aorta) [µM]	SMILES	EC25 (Rattus norvegicus [1]) [µM]	Ratio [3]	also measured
0.032	CC1(C)Oc2ccc(C#N)cc2C(N2CCCC2=O)C1O (stereo unspecified) [CROMAKALIM]	8.9	278	–
2.2	CC1(C)Oc2ccc(C#N)cc2[C@@H](/N=C(\NC#N)Nc2ccc(O)cc2)[C@@H]1O	33.4	15.2	–
1.8	CC1(C)Oc2ccc(C#N)cc2[C@@H](/N=C(\NC#N)Nc2ccc(Cl)cc2)[C@@H]1O	2.5	1.4	–
1.4	CC1(C)Oc2ccc(C#N)cc2[C@@H](/N=C(\NC#N)Nc2ccc(F)cc2)[C@@H]1O	3.5	2.5	bioavailability [5]: 64%; half-life [6]: 1.7 h
8.1	CC1(C)Oc2ccc(C#N)cc2[C@@H](/N=C(\NC#N)Nc2ccc(C(F)(F)F)cc2)[C@@H]1O	13.4	1.7	–
1.7	CC1(C)Oc2ccc(C#N)cc2[C@@H](/N=C(\S)Nc2ccccc2)[C@@H]1O	7.7	4.5	–

Further lines, the compound ahead of its results:

SMILES	IC50 (Rattus norvegicus [2]; Rattus norvegicus, Aorta) [µM]	EC25 (Rattus norvegicus [1]) [µM]	Ratio [3]	also measured
CC1(C)Oc2ccc([N+](=O)[O-])cc2[C@@H](/N=C(\NC#N)Nc2ccccc2)[C@@H]1O	2	7.2	3.6	–
CC1(C)Oc2ccccc2[C@@H](/N=C(\NC#N)Nc2ccccc2)[C@@H]1O	72.7	–	–	EC25 (Rattus norvegicus [4]): inactive
CCC(C)(C)/N=C(\NC#N)N[C@@H]1c2cc(C#N)ccc2OC(C)(C)[C@H]1O	–	20.1	0.7	–
CC1(C)Oc2ccc(C#N)cc2[C@@H](NC(=NC#N)Nc2ccc(Cl)cc2)[C@@H]1O	–	–	–	bioavailability [5]: 61%; half-life [6]: 7 h
CC1(C)Oc2ccc(C#N)cc2[C@@H](/N=C(\NC#N)Nc2ccccc2)[C@@H]1O (stereo in doubt; 5) [listing 1 of 2 here]	–	–	7.9	–
CC1(C)Oc2ccc(C#N)cc2[C@@H](NC(=O)Nc2ccccc2)[C@@H]1O	–	5.1	–	–
CC1(C)Oc2ccc(C#N)cc2[C@@H](/N=C(\NC#N)Nc2ccccc2)[C@@H]1O (stereo in doubt; 12) [listing 1 of 2 here]	–	6.1	–	bioavailability [5]: 70%; half-life [6]: 1.8 h; IC50 (Rattus norvegicus [2]): 1.3 µM
CC1(C)Oc2ccc(C#N)cc2[C@@H](/N=C(\NC#N)Nc2ccccc2)[C@@H]1O (stereo in doubt; 5) [listing 2 of 2 here]	–	11	–	–
C#Cc1ccc2c(c1)[C@@H](/N=C(\NC#N)Nc1ccccc1)[C@H](O)C(C)(C)O2	5.4	>30	–	–
CC1(C)Oc2ccc(C#N)cc2[C@@H](/N=C(\NC#N)Nc2ccccc2)[C@@H]1O (stereo in doubt; 12) [listing 2 of 2 here]	–	–	4.7	–
CC1(C)Oc2ccc(C#N)cc2[C@@H](/N=C(\NC#N)Nc2ccccc2)[C@@H]1O (stereo in doubt; 13)	–	>30	–	IC50 (Rattus norvegicus [2]): 4.2 µM
